In US11807644B2 (PMV Pharmaceuticals, Inc., priority 2020, dated 2023):

Each compound was assayed against T1, recombinant His-tag Y220C p53 DBD protein (Homo sapiens, UniProt P04637, Y220C) (assay: In vitro DNA binding activity assay (TR-FRET): binding of His-tag Y220C p53 DBD to biotin-labeled consensus DNA). Settings: SC150 = concentration to increase DNA binding by […], His-tag Y220C p53 DBD, biotin-labeled consensus DNA.
T1 construct: recombinant His-tag Y220C p53 DBD protein (amino acids #˜94-312)
Assay type: biochemical

| Structure (SMILES) | Y220C SC150 (μM) |
| --- | --- |
| CN1CC[C@@H](Nc2cccc3c2cc(-c2noc(CNc4cn[nH]c4)n2)n3CC(F)(F)F)[C@@H](F)C1 [Compound 227B, N-[(3S,4R)-3-fluoro-1-methylpiperidin-4-yl]-2-(5-{[(1H-pyrazol-4-yl)amino]methyl}-1,2,4-oxadiazol-3-yl)-1-(2,2,2-trifluoroethyl)-1H-indol-4-amine] | * (* = 0 μM ≤ SC150 < 0.1 μM) |
| CC(=O)NCc1nc(-c2cc3c(N[C@@H]4CCN(C)C[C@@H]4F)cccc3n2CC(F)(F)F)no1 [Compound 228B, N-{[3-(4-{[(3S,4R)-3-fluoro-1-methylpiperidin-4-yl]amino}-1-(2,2,2-trifluoroethyl)-1H-indol-2-yl)-1,2,4-oxadiazol-5-yl]methyl}acetamide] | * (* = 0 μM ≤ SC150 < 0.1 μM) |
| CN(C)CCn1ccc(C(=O)NCc2nc(-c3cc4c(N[C@@H]5CCN(C)C[C@@H]5F)cccc4n3CC(F)(F)F)no2)c1 [Compound 229B, 1-[2-(dimethylamino)ethyl]-N-{[3-(4-{[(3S,4R)-3-fluoro-1-methylpiperidin-4-yl]amino}-1-(2,2,2-trifluoroethyl)-1H-indol-2-yl)-1,2,4-oxadiazol-5-yl]methyl}-1H-pyrrole-3-carboxamide] | * (* = 0 μM ≤ SC150 < 0.1 μM) |
| CN1CC[C@@H](Nc2cccc3c2cc(-c2noc(CNc4ccn[nH]4)n2)n3CC(F)(F)F)[C@@H](F)C1 [Compound 230B, N-[(3S,4R)-3-fluoro-1-methylpiperidin-4-yl]-2-(5-{[(1H-pyrazol-5-yl)amino]methyl}-1,2,4-oxadiazol-3-yl)-1-(2,2,2-trifluoroethyl)-1H-indol-4-amine] | * (* = 0 μM ≤ SC150 < 0.1 μM) |
| CC(C)n1cnc(C(=O)NCc2nc(-c3cc4c(N[C@@H]5CCN(C)C[C@@H]5F)cccc4n3CC(F)(F)F)no2)c1 [Compound 232B, N-{[3-(4-{[(3S,4R)-3-fluoro-1-methylpiperidin-4-yl]amino}-1-(2,2,2-trifluoroethyl)-1H-indol-2-yl)-1,2,4-oxadiazol-5-yl]methyl}-1-(propan-2-yl)-1H-imidazole-4-carboxamide] | * (* = 0 μM ≤ SC150 < 0.1 μM) |
| CN1CC[C@@H](Nc2cccc3c2cc(-c2noc(CNC(=O)[C@H]4CC4(C)C)n2)n3CC(F)(F)F)[C@@H](F)C1 [Compound 233B, (1S)-N-{[3-(4-{[(3S,4R)-3-fluoro-1-methylpiperidin-4-yl]amino}-1-(2,2,2-trifluoroethyl)-1H-indol-2-yl)-1,2,4-oxadiazol-5-yl]methyl}-2,2-dimethylcyclopropane-1-carboxamide] | * (* = 0 μM ≤ SC150 < 0.1 μM) |

Further lines, results first:

| Y220C SC150 (μM) | Structure (SMILES) |
| --- | --- |
| * (* = 0 μM ≤ SC150 < 0.1 μM) | CN1CC[C@@H](Nc2cccc3c2cc(-c2noc(CNC(=O)[C@@H]4C[C@H]4c4ccccc4F)n2)n3CC(F)(F)F)[C@@H](F)C1 [Compound 224B, (1R,2R)-N-{[3-(4-{[(3S,4R)-3-fluoro-1-methylpiperidin-4-yl]amino}-1-(2,2,2-trifluoroethyl)-1H-indol-2-yl)-1,2,4-oxadiazol-5-yl]methyl}-2-(2-fluorophenyl)cyclopropane-1-carboxamide] |
| * (* = 0 μM ≤ SC150 < 0.1 μM) | CN1CC[C@@H](Nc2cccc3c2cc(-c2noc(CNC(=O)[C@@H]4C[C@H]4c4cnn(C)c4)n2)n3CC(F)(F)F)[C@@H](F)C1 [Compound 225B, (1R,2R)-N-{[3-(4-{[(3S,4R)-3-fluoro-1-methylpiperidin-4-yl]amino}-1-(2,2,2-trifluoroethyl)-1H-indol-2-yl)-1,2,4-oxadiazol-5-yl]methyl}-2-(1-methyl-1H-pyrazol-4-yl)cyclopropane-1-carboxamide] |
| * (* = 0 μM ≤ SC150 < 0.1 μM) | CN1CC[C@@H](Nc2cccc3c2cc(-c2noc(CNC(=O)[C@@H]4C[C@H]4c4ccccn4)n2)n3CC(F)(F)F)[C@@H](F)C1 [Compound 226B, (1R,2R)-N-{[3-(4-{[(3S,4R)-3-fluoro-1-methylpiperidin-4-yl]amino}-1-(2,2,2-trifluoroethyl)-1H-indol-2-yl)-1,2,4-oxadiazol-5-yl]methyl}-2-(pyridin-2-yl)cyclopropane-1-carboxamide] |
